Laboratory results reported in patent publication US11261183B2, “Sulfoximine glycosidase inhibitors” (Asceneuron SA, priority 2016, dated 2022).

Columns and labels:
[1] = target: Human O-GlcNAcase (His-Tagged hOGA) (Homo sapiens (Human), UniProt O60502); experiment: Human O-GlcNAcase enzyme inhibition assay; type: biochemical; conditions: His-Tagged hOGA 20 nM, FL-GlcNAc 10 μM, 60 min, room temperature, pH 6.5; read-out: Enzymatic OGA IC50
Method: Example B01: Human O-GlcNAcase enzyme inhibition assay
5 μl of the appropriate concentration of a solution of inhibitor in McIlvaine's Buffer (pH 6.5) in 2% DMSO (for a dose response curve calculation) is added into each well of a 384-well plate (Greiner, 781900). Then, 20 nM of His-Tagged hOGA and 10 μM of FL-GlcNAc (Fluorescein mono-beta-D-(2-deoxy-2-N-acetyl) glucopyranoside; Marker Gene Technologies Inc, M1485) were added to the 384-well plate for a final volume of 20 μl. After incubation for 60 min at room temperature, the reaction was terminated by the addition of 10 μL of stop buffer (200 mM glycine, pH 10.75).

[2] = Protein binding in mice plasma using Rapid Equilibrium Dialysis; type: in vitro ADME, CD1 mice; conditions: male, CD1, mouse, plasma, pH 7.4, CD1 mouse plasma, 37° C.
Method: Example B04: Protein binding in mice plasma using Rapid Equilibrium Dialysis
• CD1 Mice Plasma: pooled male, K2-EDTA ([…]2, Bioreclammation, USA • Phosphate Buffered Saline (1×PBS), pH 7.4, 100 mM (Sigma, Cat No. P4417) • RED inserts (Pierce, Cat No. 9006, 8 kDa MWCO) • Sample Analysis: LC-MS/MS Methods • Preparation of DMSO Stock Solution
From 20 mM DMSO stock solutions of reference and test compounds, 1 mM DMSO intermediate working solutions are prepared. From 1 mM intermediate working solutions, 100 μM DMSO working solutions are prepared. • Sample Preparation Procedure:
Selected plasma is brought from −20° C. to 37° C. using water bath before its use. Test solution is prepared by adding the DMSO working solution of the reference or test compound (2 μL; 100 μM) to the selected plasma (198 μL). Spiked plasma (200 μl) is transferred to sample compartment of RED insert placed in the teflon plate. 350 μl of 1×PBS is added in the buffer compartment of RED insert. The teflon plate is covered with sealing mat and agitated at 37° C. for 5 hours at 500 RPM in a Thermomixer. After incubation time, an aliquot of plasma (50 μl) from sample compartment is mixed with blank 1×PBS (50 μl). Similarly, an aliquot of buffer (50 μl) from buffer compartment is mixed with blank plasma (50 μl). Quenching solution (200 μL, acetonitrile containing internal standard tolbutamide (0.5 μg/mL)) is added and the resulting solutions are mixed using a vortex mixer and centrifuged (Eppendorf 5415, 13792 g). Supernatants are analyzed using a Mass Spectrometer. The sample (supernatant fraction, 5 μL) is injected into the LC-MS/MS instrument. • Chromatographic Conditions: LC-MS/MS: API 4000 LC-MS/MS Software: Analyst Version 1.6.1 Column Phenomenex Synergy 30*4.6*5μ Column Oven: 40° C. Mode: ESI Positive Injection volume: 5 μl Flow Rate: […] Buffer: 0.1% Formic acid in Water Method: Isocratic Method/Gradient Composition: A) 0.1% Formic acid in Water B) 0.1% Formic acid in Methanol
After the concentration of free drug and total drug has been determined by LCMS/MS, percent plasma protein binding can be calculated as follows:
[formula] Following this protocol, % fraction unbound in plasma from different species can be also measured.

Sequence of Human O-GlcNAcase (His-Tagged hOGA) (O60502 whole entry): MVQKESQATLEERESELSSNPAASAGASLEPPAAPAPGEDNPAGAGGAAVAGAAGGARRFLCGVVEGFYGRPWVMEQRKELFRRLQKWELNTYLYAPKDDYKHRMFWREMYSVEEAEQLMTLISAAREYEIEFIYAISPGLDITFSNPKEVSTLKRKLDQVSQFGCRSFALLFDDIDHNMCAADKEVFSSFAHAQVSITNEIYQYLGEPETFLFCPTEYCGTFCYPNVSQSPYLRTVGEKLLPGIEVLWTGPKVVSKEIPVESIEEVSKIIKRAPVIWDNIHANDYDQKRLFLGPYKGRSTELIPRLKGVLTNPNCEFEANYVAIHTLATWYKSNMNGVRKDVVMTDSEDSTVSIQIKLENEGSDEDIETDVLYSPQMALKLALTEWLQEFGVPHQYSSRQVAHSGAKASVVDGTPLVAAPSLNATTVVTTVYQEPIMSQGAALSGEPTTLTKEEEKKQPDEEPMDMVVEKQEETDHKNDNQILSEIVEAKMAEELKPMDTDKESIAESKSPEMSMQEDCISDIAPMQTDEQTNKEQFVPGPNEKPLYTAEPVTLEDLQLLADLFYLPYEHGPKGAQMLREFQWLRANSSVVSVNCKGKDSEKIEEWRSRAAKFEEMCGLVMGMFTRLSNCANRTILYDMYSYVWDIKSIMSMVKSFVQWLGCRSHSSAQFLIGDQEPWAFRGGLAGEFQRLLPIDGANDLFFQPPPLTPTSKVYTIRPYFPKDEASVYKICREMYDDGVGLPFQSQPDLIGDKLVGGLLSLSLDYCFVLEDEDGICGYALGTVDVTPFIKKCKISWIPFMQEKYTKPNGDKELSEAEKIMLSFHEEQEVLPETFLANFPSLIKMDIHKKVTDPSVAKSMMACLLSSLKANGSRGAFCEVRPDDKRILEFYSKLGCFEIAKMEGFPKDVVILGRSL

IC50 [1] [nM] | fraction unbound at 5 h, 1 µM [2] | Compound
< 50 | 0.294 | CC(c1ccc2c(c1)OCC2)N1CCN(c2ccc(S(C)(=N)=O)cn2)CC1 (racemic) [Example 7, (6-(4-(1-(2,3-dihydrobenzofuran-6-yl)ethyl)piperazin-1-yl)pyridin-3-yl)(imino)(methyl)-Δ^6-sulfanone]
< 50 | 0.234 | CN=S(C)(=O)c1cnc(N2CCN(C(C)c3ccc4c(c3)OCC4)CC2)nc1 (racemic) [Example 8, (2-(4-(1-(2,3-dihydrobenzofuran-6-yl)ethyl)piperazin-1-yl)pyrimidin-5-yl)(methyl)(methylimino)-λ^6-sulfanone]
< 50 | 0.139 | CC(c1ccc2c(c1)OCC2)N1CCN(c2ncc(C(=O)N=S(C)(C)=O)cn2)CC1 (racemic) [Example 10, 2-(4-(1-(2,3-dihydrobenzofuran-6-yl)ethyl)piperazin-1-yl)-N-(dimethyl(oxo)-λ^6-sulfanylidene)pyrimidine-5-carboxamide]
< 50 | – | CCS(=N)(=O)c1cnc(N2CCN(C(C)c3ccc4sc(C)nc4c3)CC2)nc1 (racemic) [Example 43, ethyl(imino)(2-(4-(1-(2-methylbenzo[d]thiazol-5-yl)ethyl)piperazin-1-yl)pyrimidin-5-yl)-λ^6-sulfanone]
50 to 200 | – | CC(c1ccc2nccnc2c1)N1CCN(c2ncc(S(C)(=N)=O)cn2)CC1 (racemic) [Example 57, imino(methyl)(2-(4-(1-(quinoxalin-6-yl)ethyl)piperazin-1-yl)pyrimidin-5-yl)-λ^6-sulfanone]
< 50 | – | Cc1nc2cc(C(C)N3CCN(c4ncc5c(n4)CCS(=N)(=O)C5)CC3)ccc2s1 (racemic) [Example 58, 6-imino-2-(4-(1-(2-methylbenzo[d]thiazol-5-yl)ethyl)piperazin-1-yl)-5,6,7,8-tetrahydro-6λ^4-thiopyrano[4,3-d]pyrimidine 6-oxide]
200 to 1000 | – | CC(c1ccc2c(c1)OCC2)N1CCN(c2ncc(S(C)(=N)=O)cn2)CC1 (single isomer, unassigned) [Example 13]
1000 to 10000 | – | CC(c1ccc2c(c1)OCC2)N1CCN(c2ncc(S(C)(=N)=O)cn2)CC1 (single isomer, unassigned) [Example 15]
< 50 | – | CC(c1ccc2c(c1)OCC2)N1CCN(c2ncc(S(C)(=N)=O)cn2)CC1 (single isomer, unassigned) [Example 16, (2-(4-((S)-1-(2,3-dihydrobenzofuran-6-yl)ethyl)piperazin-1-yl)pyrimidin-5-yl)(imino)(methyl)-λ^6-sulfanone or (2-(4-((R)-1-(2,3-dihydrobenzofuran-6-yl)ethyl)piperazin-1-yl)pyrimidin-5-yl)(imino)(methyl)-λ^6-sulfanone]
50 to 200 | – | CC(c1ccc2scnc2c1)N1CCN(c2ncc(S(C)(=N)=O)cn2)CC1 (single isomer, unassigned) [Example 38, (R)-(2-(4-(1-(benzo[d]thiazol-5-yl)ethyl)piperazin-1-yl)pyrimidin-5-yl)(imino)(methyl)-λ^6-sulfanone or (S)-(2-(4-(1-(benzo[d]thiazol-5-yl)ethyl)piperazin-1-yl)pyrimidin-5-yl)(imino)(methyl)-λ^6-sulfanone]
< 50 | – | CC(c1ccc2scnc2c1)N1CCN(c2ncc(S(C)(=N)=O)cn2)CC1 (single isomer, unassigned) [Example 39, (R)-(2-(4-(1-(benzo[d]thiazol-5-yl)ethyl)piperazin-1-yl)pyrimidin-5-yl)(imino)(methyl)-λ^6-sulfanone or (S)-(2-(4-(1-(benzo[d]thiazol-5-yl)ethyl)piperazin-1-yl)pyrimidin-5-yl)(imino)(methyl)-λ^6-sulfanone]
200 to 1000 | – | Cc1nc2cc(C(C)N3CCN(c4ncc(S(C)(=N)=O)cn4)CC3)ccc2s1 (single isomer, unassigned) [Example 52]
1000 to 10000 | – | Cc1nc2cc(C(C)N3CCN(c4ncc(S(C)(=N)=O)cn4)CC3)ccc2s1 (single isomer, unassigned) [Example 54]
– | 0.0779 | CC(c1ccc2c(c1)OCC2)N1CCN(c2ncnc3c2CS(=N)(=O)C3)CC1 (stereo not drawn) [Example 60, 4-(4-(1-(2,3-dihydrobenzofuran-6-yl)ethyl)piperazin-1-yl)-6-imino-6,7-dihydro-5H-6δ^4-thieno[3,4-d]pyrimidine 6-oxide]

The remaining lines, values behind:

Compound | IC50 [1] [nM] | fraction unbound at 5 h, 1 µM [2]
CC(c1ccc2c(c1)OCC2)N1CCN(c2ncc(S(C)(=N)=O)cn2)CC1 (racemic) [Example 1, (2-(4-(1-(2,3-dihydrobenzofuran-6-yl)ethyl)piperazin-1-yl)pyrimidin-5-yl)(imino)(methyl)λ^6-sulfanone] | < 50 | 0.393
CC1Cc2ccc(C(C)N3CCN(c4ncc(S(C)(=N)=O)cn4)CC3)cc2O1 (racemic) [Example 2, Imino(methyl)(2-(4-(1-(2-methyl-2,3-dihydrobenzofuran-6-yl)ethyl)piperazin-1-yl)pyrimidin-5-yl)-λ^6-sulfanone] | – | 0.222
CCS(=N)(=O)c1cnc(N2CCN(C(C)c3ccc4c(c3)OCC4)CC2)nc1 (racemic) [Example 3, (2-(4-(1-(2,3-dihydrobenzofuran-6-yl)ethyl)piperazin-1-yl)pyrimidin-5-yl)(ethyl)(imino)-λ^6-sulfanone] | < 50 | 0.25
CCCS(=N)(=O)c1cnc(N2CCN(C(C)c3ccc4c(c3)OCC4)CC2)nc1 (racemic) [Example 4, (2-(4-(1-(2,3-dihydrobenzofuran-6-yl)ethyl)piperazin-1-yl)pyrimidin-5-yl)(imino)(propyl)-λ^6-sulfanone] | < 50 | 0.142
CCS(=N)(=O)c1ccc(N2CCN(C(C)c3ccc4c(c3)OCC4)CC2)nc1 (racemic) [Example 6, (6-(4-(1-(2,3-dihydrobenzofuran-6-yl)ethyl)piperazin-1-yl)pyridin-3-yl)(ethyl)(imino)-λ^6-sulfanone] | < 50 | 0.261
CC(c1ccc2c(c1)OCC2)N1CCN(c2ncc(N=S(C)(C)=O)cn2)CC1 (racemic) [Example 9] | < 50 | 0.376
CC(C)N=S(C)(=O)c1cnc(N2CCN(C(C)c3ccc4scnc4c3)CC2)nc1 (racemic) [Example 28, (2-(4-(1-(benzo[d]thiazol-5-yl)ethyl)piperazin-1-yl)pyrimidin-5-yl)(isopropylimino)(methyl)-λ^6-sulfanone] | 50 to 200 | –
CN=S(C)(=O)c1ccc(N2CCN(C(C)c3ccc4scnc4c3)CC2)nc1 (racemic) [Example 30, (6-(4-(1-(benzo[d]thiazol-5-yl)ethyl)piperazin-1-yl)pyridin-3-yl)(methyl)(methylimino)-λ^6-sulfanone] | 50 to 200 | –
CCCS(=N)(=O)c1cnc(N2CCN(C(C)c3ccc4sc(C)nc4c3)CC2)nc1 (racemic) [Example 44, Imino(2-(4-(1-(2-methylbenzo[d]thiazol-5-yl)ethyl)piperazin-1-yl)pyrimidin-5-yl)(propyl)-λ^6-sulfanone] | < 50 | –
Cc1nc2cc(C(C)N3CCN(c4ccc(S(C)(=N)=O)cc4)CC3)ccc2s1 (racemic) [Example 50, imino(methyl)(4-(4-(1-(2-methylbenzo[d]thiazol-5-yl)ethyl)piperazin-1-yl)phenyl)-λ^6-sulfanone] | < 50 | –
CCN=S(C)(=O)c1cnc(N2CCN(C(C)c3ccc4c(c3)OCC4)CC2)nc1 (single isomer, unassigned) [Example 18] | < 50 | –
CC(C)N=S(C)(=O)c1cnc(N2CCN(C(C)c3ccc4c(c3)OCC4)CC2)nc1 (single isomer, unassigned) [Example 19] | < 50 | –
CC(c1ccc2scnc2c1)N1CCN(c2ncc(S(C)(=N)=O)cn2)CC1 (single isomer, unassigned) [Example 40] | 1000 to 10000 | –
CC(c1ccc2scnc2c1)N1CCN(c2ncc(S(C)(=N)=O)cn2)CC1 (single isomer, unassigned) [Example 41] | 1000 to 10000 | –
